We go through one compound from patent US20250228796A1, “SKELETAL MUSCLE ENHANCER” (SATO PHARMACEUTICAL CO., LTD., priority 2022, published 2025).

Common to all, as to type: in vivo, mouse
In assay [1] the test system is tibialis anterior muscle of muscle damage model (CTX). The assay can be described thus: Muscle damage model (cardiotoxin): muscle weight and regenerated muscle fiber cross-sectional area. The conditions noted are these: 7 days after CTX. How it is done: (§1) Seven-week old C57BL/6 Male mice (CLEA Japan, Inc.) were purchased, and used for experiment at the age of 8 weeks.
A model animal to which muscle damage had been caused by administion of snake venom cardiotoxin (CTX) was used. The model animal has been widely used in studies on regeneration from muscle damage.
Under the anesthesia with isoflurane, 50 μL of 10 μM CTX was administered to the tibialis anterior muscle of the right hindlimb of the mouse. Fifty μL of a phosphate buffer (PBS) was administered as a Vehicle to the tibialis anterior muscle of left hindlimb of the same mouse. After 7 days of the administration of CTX, the tibialis anterior muscle was collected by dissection, and supplied to the measurement of muscle weight and preparation of a muscle tissue section.
(§2) Body weight of the mouse was measured before collecting the tibialis anterior muscle. Furthermore, the weight of the collected tibialis anterior muscle was measured. From these measured values, the ratio (%) of the skeletal muscle weight per body weight of the mouse (weight of tibialis anterior muscle/body weight of mouse) was calculated.
(§3) Immediately after the collection of the tibialis anterior muscle, the tibialis anterior muscle was immersed in isopentane cooled with liquid nitrogen and was rapidly frozen. The frozen muscle tissue was cut into slices each having a thickness of 10 μm by using a cryostat (Leica Biosystems), and the slice was attached onto an antistripping coated slide glass (Matsunami Glass Ind., Ltd.).
A muscle tissue section was sufficiently air dried for 30 minutes under room temperature. After that, the muscle tissue sections was fixed by immersing it in acetone cooled to −30° C. and treating at −30° C. for 20 minutes. The fixed sections was air dried once and washed with PBS. Then the section was blocked by dropwisely adding a blocking reagent (Blocking One. NACALAI TESQUE, INC.) to the section and subjected to the blocking treatment for 1 hour. Next, a primary antibody (Anti-laminin-2 (α-2 Chain) antibody Rat monoclonal (Sigma-Aldrich)) obtained by being diluted 500 times with a blocking reagent was added dropwise, and the reaction was conducted at overnight at 4° C. Since laminin to which a primary antibody binds is a protein expressed in the basement membranes of all muscle cells, the laminin was used in this experiment as an index in order to measure the area of individual muscle cells in a section. The muscle tissue section after the reaction with the primary antibody was washed with PBS, and then was reacted for 1 hour with a secondary antibody (CF 488A Goat Anti-Rat IgG (H+L) (Biotium)) obtained by being diluted 500 times with the blocking reagent. The secondary antibody that is an anti-rat antibody conjugated with a fluorescent dye binds to the primary antibody, and stains the laminin. The muscle tissue sections after the reaction with the secondary antibody was washed with PBS, and sealed by using “VECTASHIELD Hard. Set with DAPI” (Vector), and then the fluorescence observation was performed with an inverted microscope FSX100 (Olympus).
The muscle fiber cross-sectional area was measured basis of the image data taken from the fluorescence observation. After the image data was taken into image analysis software ImageJ (NIH), the cross-sectional area of the individual cells were measured on the basis of the cell membrane stained with laminin. For the area measurement, “Analyze Particles” that is an add-in analysis program on ImageJ was used. The measurement results were shown as a distribution chart (histogram) of the areas and number of single-muscle fibers, and as an average value of the cross-sectional areas of all the single muscle fibers (mean muscle fiber area).
In the muscle damage model (Example 3), the regenerated muscle was used as a measurement target. […]

The subject of assay [2] is tibialis anterior muscle of muscle atrophy model. Description: Muscle atrophy model (hindlimb fixation): muscle weight and muscle fiber cross-sectional area. The conditions noted are these: intramuscular.
Source text: as §1
A model animal to which muscle atrophy had been caused by a method of fixing a hindlimb (J Appl Physiol, vol. 106, pp. 2049-2059, 2009) was used.
(§4) Under the anesthesia with isoflurane, the left hindlimb of the mouse in a bent state was fixed with a surgical stapler (Kaiser Plus. KEISEI MEDICAL INDUSTRIAL CO., LTD.). The right hindlimb of the same mouse was assigned to the sham-treatment side, and no fixation treatment was performed. After 3 or 7 days of the start of fixation, the tibialis anterior muscle (one of skeletal muscles) was collected by dissection. The sample collected after 3 days was supplied to the expression analysis of the muscle atrophy-related genes, and the sample collected after 7 days was supplied to the measurement of a muscle weight and the preparation of a muscle tissue section.
as §2, §3
A muscle tissue section was sufficiently air dried for 30 minutes under room temperature. After that, the muscle tissue sections was fixed by immersing it in acetone cooled to −30° C. and treating at −30° C. for 20 minutes. The fixed sections was air dried once and washed with PBS. Then the section was blocked by dropwisely adding a blocking reagent (Blocking One. NACALAI TESQUE, INC.) to the section and subjected to the blocking treatment for 1 hour. Next, a primary antibody (Anti-laminin-2 (α-2 Chain) antibody Rat monoclonal (Sigma-Aldrich)) obtained by being diluted 500 times with a blocking reagent was added dropwise, and the reaction was conducted at overnight at 4° C. Since laminin to which a primary antibody binds is a protein expressed in the basement membranes of all muscle cells, the laminin was used in this experiment as an index in order to measure the area of individual muscle cells in a section. The muscle tissue section after the reaction with the primary antibody was washed with PBS, and then was reacted for 1 hour with a secondary antibody (CF 488A Goat Anti-Rat IgG (H+L) (Biotium)) obtained by being diluted 500 times with the blocking reagent. The secondary antibody that is an anti-rat antibody conjugated with a fluorescent dye binds to the primary antibody, and stains the laminin. […] Set with DAPI” (Vector), and then the fluorescence observation was performed with an inverted microscope FSX100 (Olympus).
The muscle fiber cross-sectional area was measured basis of the image data taken from the fluorescence observation. After the image data was taken into image analysis software ImageJ (NIH), the cross-sectional area of the individual cells were measured on the basis of the cell membrane stained with laminin. […]

Assay [3] concerns myostatin (Mstn) mRNA expression. The assay can be described thus: Expression analysis of muscle atrophy-related gene Mstn in muscle atrophy model. The conditions noted are these: 3 days. The method, then: as §4
(§5) The tibialis anterior muscle was homogenized with Sepasol-RNA I Super G (NACALAI TESQUE, INC.), 1-bromo-3-chloropropane was added thereto, the mixture was stirred, and further centrifuged, then RNA was extracted from the supernatant. The extracted RNA was recovered with 2-propanol and 75% ethanol, and then subjected to the reverse transcription reaction (using ReverTra Ace qPCR RT Master Mix (Toyobo Co., Ltd.) according to the attached protocol) to synthesize cDNA. The synthesized CDNA was subjected to the real-time PCR method (using Applied Biosystems 7500 Real-Time PCR System (Thermo Fisher Scientific)) to measure mRNA expression of three genes, Trim63 (MuRF1), myostatin (Mstn), and Gapdh. Primer sequences used are as follows.
(§6) The expression levels of mRNA of Trim63 and Mstn (mTrim63 and mMstn) were calculated as a ratio to the expression level of mRNA of Gapdh (mGapdh). […]
(§7) Spermidine trihydrochloride (SPD) was administered to muscle atrophy model animals by three administration routes, and the expression variations of muscle atrophy-related genes Trim63 and Mstn were measured. […]
(§8) The mRNA expression of Trim63 and Mstn in the tibialis anterior muscle of the left hindlimb (fixed: Staple) and the right hindlimb (sham treatment: Sham) collected after 3 days of the start of fixation was measured.

Assay [4] relates to Trim63 (MuRF1) mRNA expression. Description: Expression analysis of muscle atrophy-related gene Trim63 in muscle atrophy model. Conditions: 3 days. The method, then:
as §4, §5, §6, §7, §8

Setting [5] is: intraperitoneal, 19.6 mM 10 mL/kg once a day.

For `Cl.Cl.Cl.NCCCCNCCCN` [SPD, Spermidine trihydrochloride], the “suppression of muscle weight loss by CTX” value in assay [1] (intramuscular, 196 mM 10 μL once a day) was “remarkable suppression”; in assay [1] (setting [5]), “a significant suppression was not observed”; in assay [1] (oral, 30 mM in drinking water), “a significant suppression was not observed”. Besides, the “histogram of regenerated single-muscle fiber area vs Vehicle” value in assay [1] (intramuscular) is “shifted to the right side”; in assay [1] (intraperitoneal), “no shift”; in assay [1] (oral), “no shift”. Also, the “mean muscle fiber area (regenerated muscle) vs Vehicle” value is “significant increase” in assay [1] (intramuscular, ***P<0.001); “no significant increase” in assay [1] (intraperitoneal); “no significant increase” in assay [1] (oral). Besides, the “muscle weight loss due to hindlimb fixation” value in assay [2] (196 mM 10 μL once a day, 7 days, **P<0.01) is given as “significant suppression”. Also, the “muscle weight vs Vehicle administration group” value in assay [2] (196 mM 10 μL once a day, left hindlimb (fixed: Staple), 7 days after start of fixation) is “significant increase”; in assay [2] (196 mM 10 μL once a day, right hindlimb (sham treatment: Sham), 7 days after start of fixation), “significant increase”. Also, the “mean muscle fiber area vs Vehicle” value in assay [2] (7 days after start of fixation, ***P<0.001) is listed as “significant increase”. Moreover, the “histogram of single-muscle fiber area vs Vehicle” value in assay [2] (7 days after start of fixation, whole muscle) was “shifted to the right side”. Besides, the “Mstn expression suppression (reduction vs Staple, Vehicle)” value in assay [3] (intramuscular, 196 mM 10 μL once a day, Staple, **P<0.01) is recorded as 61.1%. Moreover, the Mstn expression suppression entry is listed as “did not show significant expression suppression” in assay [3] (setting [5]) and “did not show significant expression suppression” in assay [3] (oral, 30 mM in drinking water). Also, the “Trim63 expression suppression (reduction vs Staple, Vehicle)” value in assay [4] (intramuscular, 196 mM 10 μL once a day, fixed left hindlimb (Staple), *P<0.05) amounted to 65.6%; in assay [4] (intraperitoneal, 19.6 mM 10 mL/kg once a day, Staple), 42.3%. Besides, the Trim63 expression suppression result in assay [4] (oral, 30 mM in drinking water) is on record as “no expression suppression”.
